Source: ChEMBL document CHEMBL1201862, “PubChem BioAssay data set” (2004)
Activity calls are given as the source filed them. For most assays here, no stated cut-off is given here; in the data, active = IC50 of 20 µM or less and inactive = more.

Experiments:
[1] = target: Dual specificity protein phosphatase 3 (Homo sapiens, UniProt P51452); assay: VHR phosphatase inhibition, dose response, selectivity assay for STEP inhibitor project, biochemical (AID 602374); assay type: functional; details: read-out: IC50_Mean
[2] = target: T1, Tyrosine-protein phosphatase non-receptor type 5 (Homo sapiens, UniProt P54829); assay: STEP phosphatase inhibitors, confirmation, biochemical, fluorescence intensity, uHTS hits (AID 602372); assay type: functional; details: read-out: IC50_Mean
T1 sequence (P54829 whole entry): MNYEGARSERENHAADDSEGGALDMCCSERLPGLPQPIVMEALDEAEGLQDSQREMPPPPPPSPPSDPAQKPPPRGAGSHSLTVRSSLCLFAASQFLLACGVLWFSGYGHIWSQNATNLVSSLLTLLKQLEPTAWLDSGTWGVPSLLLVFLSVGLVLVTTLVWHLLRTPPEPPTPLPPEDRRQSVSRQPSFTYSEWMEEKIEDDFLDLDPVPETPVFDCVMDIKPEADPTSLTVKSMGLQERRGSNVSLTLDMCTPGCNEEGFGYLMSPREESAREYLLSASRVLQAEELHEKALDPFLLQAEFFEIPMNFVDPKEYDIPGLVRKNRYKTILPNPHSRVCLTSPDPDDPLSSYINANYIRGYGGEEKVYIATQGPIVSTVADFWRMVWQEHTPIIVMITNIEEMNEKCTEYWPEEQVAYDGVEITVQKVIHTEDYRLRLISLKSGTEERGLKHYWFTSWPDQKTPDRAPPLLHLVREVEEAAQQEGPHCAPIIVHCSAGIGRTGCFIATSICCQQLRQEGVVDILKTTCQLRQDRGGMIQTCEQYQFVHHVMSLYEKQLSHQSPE

[3] = target: T2, Tyrosine-protein phosphatase non-receptor type 22 (Homo sapiens, UniProt Q9Y2R2); assay: PTPN22 phosphatase inhibition, dose response, selectivity assay for STEP inhibitor project, biochemical (AID 624241); assay type: functional
T2 sequence (Q9Y2R2 whole entry): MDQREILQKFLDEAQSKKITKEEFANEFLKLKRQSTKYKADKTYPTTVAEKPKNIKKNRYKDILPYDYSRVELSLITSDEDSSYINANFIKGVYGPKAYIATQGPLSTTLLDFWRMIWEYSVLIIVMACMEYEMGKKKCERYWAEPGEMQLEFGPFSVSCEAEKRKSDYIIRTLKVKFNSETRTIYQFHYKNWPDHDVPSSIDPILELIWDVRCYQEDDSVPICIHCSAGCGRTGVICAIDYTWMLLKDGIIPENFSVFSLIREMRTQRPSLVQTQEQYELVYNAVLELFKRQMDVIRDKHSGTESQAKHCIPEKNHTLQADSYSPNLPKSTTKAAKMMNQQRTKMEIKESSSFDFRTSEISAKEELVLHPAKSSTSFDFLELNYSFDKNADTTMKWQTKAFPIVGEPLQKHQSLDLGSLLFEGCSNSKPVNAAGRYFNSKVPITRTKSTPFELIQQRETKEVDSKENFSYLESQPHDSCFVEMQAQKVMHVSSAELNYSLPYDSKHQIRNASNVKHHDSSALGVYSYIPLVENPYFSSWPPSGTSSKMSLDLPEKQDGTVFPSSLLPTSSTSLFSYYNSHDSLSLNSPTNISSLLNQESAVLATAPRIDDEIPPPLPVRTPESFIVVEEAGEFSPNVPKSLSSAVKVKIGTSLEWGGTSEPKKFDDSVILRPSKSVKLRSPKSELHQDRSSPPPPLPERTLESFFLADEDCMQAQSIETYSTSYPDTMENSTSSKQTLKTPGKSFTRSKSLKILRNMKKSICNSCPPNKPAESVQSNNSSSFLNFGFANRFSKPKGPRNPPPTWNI

[4] = target: DNA dC->dU-editing enzyme APOBEC-3A (Homo sapiens, UniProt P31941); assay: APOBEC3A DNA deaminase inhibitors, dose response, biochemical (AID 504722); assay type: functional
[5] = target: T3, Tyrosine-protein phosphatase non-receptor type 11 (Homo sapiens, UniProt Q06124); assay: SHP2 phosphatase inhibition, dose response, selectivity assay for STEP inhibitor project, biochemical (AID 602367); assay type: functional; details: read-out: IC50_Mean
T3 sequence (Q06124 whole entry): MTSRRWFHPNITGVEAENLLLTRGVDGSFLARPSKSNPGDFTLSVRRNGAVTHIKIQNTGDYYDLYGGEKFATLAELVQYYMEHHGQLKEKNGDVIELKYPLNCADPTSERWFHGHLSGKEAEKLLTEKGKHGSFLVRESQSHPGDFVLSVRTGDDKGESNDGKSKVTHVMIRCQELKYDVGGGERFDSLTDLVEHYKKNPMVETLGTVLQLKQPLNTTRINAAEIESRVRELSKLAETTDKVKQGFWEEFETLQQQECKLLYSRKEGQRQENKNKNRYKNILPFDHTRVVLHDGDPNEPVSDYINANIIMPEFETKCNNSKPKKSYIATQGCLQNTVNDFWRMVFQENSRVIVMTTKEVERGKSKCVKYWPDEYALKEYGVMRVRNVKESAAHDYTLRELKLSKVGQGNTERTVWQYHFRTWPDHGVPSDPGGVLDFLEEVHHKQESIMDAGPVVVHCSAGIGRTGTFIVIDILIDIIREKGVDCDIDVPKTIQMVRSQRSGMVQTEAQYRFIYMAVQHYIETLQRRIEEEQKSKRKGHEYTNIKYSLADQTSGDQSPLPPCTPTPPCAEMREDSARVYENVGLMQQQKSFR

[6] = target: DNA dC->dU-editing enzyme APOBEC-3G (Homo sapiens, UniProt Q9HC16); assay: Dose Response confirmation of small molecule APOBEC3G DNA Deaminase Inhibitors via a fluorescence-based single-stranded DNA deaminase assay. [Related pubchem assays (depositor defined):AID493012, AID493028]; assay type: functional
[7] = target: T4, RNA-binding protein pos-1 (Caenorhabditis elegans, UniProt G5EF15); assay: inhibitors of POS-1/mex-3 RNA binding, dose response, biochemical, fluorescence polarization (AID 1964);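 further: purified POS-1 fused to maltose binding protein made in E. coli; potency of compounds blocking POS-1 binding to fluorescent RNA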
T4 sequence (G5EF15 whole entry): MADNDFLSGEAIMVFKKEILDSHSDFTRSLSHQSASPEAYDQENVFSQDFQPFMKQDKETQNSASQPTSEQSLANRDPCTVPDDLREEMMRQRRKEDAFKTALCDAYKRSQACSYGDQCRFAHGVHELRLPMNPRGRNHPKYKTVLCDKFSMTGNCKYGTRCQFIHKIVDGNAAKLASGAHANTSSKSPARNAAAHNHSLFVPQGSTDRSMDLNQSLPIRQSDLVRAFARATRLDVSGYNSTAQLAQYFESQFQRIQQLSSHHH

[8] = target: T5, Zinc finger protein mex-5 (Caenorhabditis elegans, UniProt Q9XUB2); assay: MEX-5/TCR-2 RNA interaction inhibitors, dose response, biochemical, C. elegans, fluorescence polarization (AID 1960)
T5 sequence (Q9XUB2 whole entry): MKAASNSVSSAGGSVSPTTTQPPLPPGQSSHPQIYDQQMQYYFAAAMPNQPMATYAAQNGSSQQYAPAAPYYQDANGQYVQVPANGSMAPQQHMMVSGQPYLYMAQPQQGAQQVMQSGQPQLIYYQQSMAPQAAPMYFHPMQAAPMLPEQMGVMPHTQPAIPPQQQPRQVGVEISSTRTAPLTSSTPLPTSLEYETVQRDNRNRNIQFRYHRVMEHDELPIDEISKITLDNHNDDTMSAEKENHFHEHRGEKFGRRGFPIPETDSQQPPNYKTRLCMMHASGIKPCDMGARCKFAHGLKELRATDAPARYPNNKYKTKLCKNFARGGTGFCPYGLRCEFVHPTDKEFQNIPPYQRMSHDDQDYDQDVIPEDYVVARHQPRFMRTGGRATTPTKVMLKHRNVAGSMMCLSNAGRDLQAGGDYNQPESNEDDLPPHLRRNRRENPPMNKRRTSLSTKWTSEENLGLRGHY

[9] = target: T6, Rac GTPase-activating protein 1 (Homo sapiens, UniProt Q9H0H5); assay: MgcRacGAP GTPase-activating activity inhibitors, confirmation, biochemical, ADP Hunter fluorescence, primary and confirmatory (AID 624330); assay type: functional
T6 sequence (Q9H0H5 whole entry): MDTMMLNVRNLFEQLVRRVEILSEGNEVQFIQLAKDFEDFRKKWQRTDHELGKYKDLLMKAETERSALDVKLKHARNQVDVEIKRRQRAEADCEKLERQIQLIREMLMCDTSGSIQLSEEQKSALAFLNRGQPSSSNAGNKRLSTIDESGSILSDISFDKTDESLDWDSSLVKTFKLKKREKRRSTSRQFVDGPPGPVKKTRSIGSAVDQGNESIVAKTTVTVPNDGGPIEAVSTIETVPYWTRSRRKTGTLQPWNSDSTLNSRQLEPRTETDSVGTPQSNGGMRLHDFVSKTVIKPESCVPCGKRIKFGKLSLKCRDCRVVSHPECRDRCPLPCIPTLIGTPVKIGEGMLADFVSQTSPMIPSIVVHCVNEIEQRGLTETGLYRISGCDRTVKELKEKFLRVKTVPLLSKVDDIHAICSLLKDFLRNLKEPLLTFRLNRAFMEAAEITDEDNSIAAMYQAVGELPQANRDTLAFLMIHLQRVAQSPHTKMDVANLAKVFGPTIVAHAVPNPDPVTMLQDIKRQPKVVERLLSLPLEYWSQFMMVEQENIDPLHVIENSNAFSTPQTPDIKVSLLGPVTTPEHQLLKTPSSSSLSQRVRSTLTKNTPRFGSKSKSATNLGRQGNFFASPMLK

[10] = target: T7, Sentrin-specific protease 1 (Homo sapiens, UniProt Q9P0U3); assay: potency of human SENP1 inhibitors, dose response, biochemical, kinetic FRET (AID 651697); assay type: functional; details: read-out: IC50_Mean
[11] = target: T7, Sentrin-specific protease 1; assay: Dose response confirmation of small molecule inhibitors of the catalytic domain of the SUMO protease, SENP1 in a FRET assay.; assay type: functional; details: read-out: IC50_Mean
[12] = target: T8, Low molecular weight phosphotyrosine protein phosphatase (Homo sapiens, UniProt P24666); assay type: functional; details: read-out: IC50_Mean
T8 sequence (P24666 whole entry): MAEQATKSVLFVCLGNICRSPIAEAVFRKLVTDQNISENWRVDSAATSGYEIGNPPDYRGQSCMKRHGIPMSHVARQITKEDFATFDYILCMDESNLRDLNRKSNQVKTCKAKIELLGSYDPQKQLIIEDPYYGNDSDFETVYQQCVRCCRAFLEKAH

[13] = target: T8, Low molecular weight phosphotyrosine protein phosphatase; assay type: functional; details: read-out: IC50_Mean; remark: listed apart in the source

Sequence of Dual specificity protein phosphatase 3 (P51452 whole entry): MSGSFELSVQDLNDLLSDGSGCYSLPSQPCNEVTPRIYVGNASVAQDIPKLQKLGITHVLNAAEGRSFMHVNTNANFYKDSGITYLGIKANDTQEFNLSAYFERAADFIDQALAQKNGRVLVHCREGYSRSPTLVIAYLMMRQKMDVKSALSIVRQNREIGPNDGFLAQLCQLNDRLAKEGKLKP
T7 sequence (Q9P0U3 whole entry, the tested form may be a part): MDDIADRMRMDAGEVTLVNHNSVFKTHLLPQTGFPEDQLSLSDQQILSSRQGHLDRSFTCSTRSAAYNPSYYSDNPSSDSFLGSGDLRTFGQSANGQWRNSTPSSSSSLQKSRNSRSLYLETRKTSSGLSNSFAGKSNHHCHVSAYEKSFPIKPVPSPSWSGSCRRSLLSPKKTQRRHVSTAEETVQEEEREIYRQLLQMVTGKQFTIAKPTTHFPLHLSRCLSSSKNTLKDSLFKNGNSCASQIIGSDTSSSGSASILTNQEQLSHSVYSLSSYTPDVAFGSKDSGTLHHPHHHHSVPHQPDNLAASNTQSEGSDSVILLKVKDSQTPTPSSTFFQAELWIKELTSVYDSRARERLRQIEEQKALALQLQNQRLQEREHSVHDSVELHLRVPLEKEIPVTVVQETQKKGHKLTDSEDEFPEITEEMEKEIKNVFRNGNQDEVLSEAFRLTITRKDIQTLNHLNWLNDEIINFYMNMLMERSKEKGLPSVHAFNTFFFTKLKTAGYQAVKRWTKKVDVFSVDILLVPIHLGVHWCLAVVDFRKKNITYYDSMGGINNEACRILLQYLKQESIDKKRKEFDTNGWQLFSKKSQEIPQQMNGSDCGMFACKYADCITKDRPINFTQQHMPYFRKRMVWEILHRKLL
Sequence of DNA dC->dU-editing enzyme APOBEC-3G (Q9HC16 whole entry, the tested form may be a part): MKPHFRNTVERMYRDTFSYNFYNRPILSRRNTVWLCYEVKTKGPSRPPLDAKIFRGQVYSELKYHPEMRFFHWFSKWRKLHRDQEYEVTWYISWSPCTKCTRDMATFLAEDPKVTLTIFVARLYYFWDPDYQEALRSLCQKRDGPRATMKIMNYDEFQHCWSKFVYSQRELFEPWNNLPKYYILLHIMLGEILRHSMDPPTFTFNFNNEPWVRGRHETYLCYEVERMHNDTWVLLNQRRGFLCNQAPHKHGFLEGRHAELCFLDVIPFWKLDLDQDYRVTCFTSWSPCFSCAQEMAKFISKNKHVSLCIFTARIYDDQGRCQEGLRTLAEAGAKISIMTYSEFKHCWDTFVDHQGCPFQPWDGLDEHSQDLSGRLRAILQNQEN
Sequence of DNA dC->dU-editing enzyme APOBEC-3A (P31941 whole entry): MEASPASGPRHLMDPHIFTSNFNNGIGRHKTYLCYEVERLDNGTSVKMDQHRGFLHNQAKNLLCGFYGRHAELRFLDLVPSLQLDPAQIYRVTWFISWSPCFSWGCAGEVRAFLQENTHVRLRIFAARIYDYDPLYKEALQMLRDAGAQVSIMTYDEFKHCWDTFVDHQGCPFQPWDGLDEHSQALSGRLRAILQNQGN

EC50 [7]	EC50 [8]	IC50 [9]	IC50 [10]	IC50 [11]	IC50 [12]	IC50 [13]	SMILES	IC50 [1]	IC50 [2]	IC50 [3]	IC50 [4]	IC50 [5]	IC50 [6]
–	–	–	–	–	–	–	CCN1CCN(C(=S)c2ccc(Cl)cc2)CC1	0.341 µM (active)	8.91 µM (active)	12.8 µM (active)	> 100 µM (inactive)	0.318 µM (active)	5.06 µM (active)
43.9 µM (active)	59.3 µM (active)	22.1 µM (active)	29 µM (inactive)	42.4 µM (inactive)	–	–	CC1(C)CC2=Nc3ccccc3SC2=C(O)C1	–	–	–	–	–	–
–	–	–	–	–	22.8 µM (inactive)	15.1 µM (active)	O=C(N/N=C/c1cccc([N+](=O)[O-])c1)c1ccc(Br)cc1	5.03 µM (active)	8.16 µM (active)	–	–	6.62 µM (active)	–
